The results in this text go back to patent US6613718B2, “Aryl ether derivatives and processes for their preparation and herbicidal and desiccant compositions containing them” (Ishihara Sangyo Kaisha, Ltd., priority 2001, dated 2003).

What all share (format): in vivo
Series [1] can be described thus: Pre-emerge herbicidal activity of mixtures with Compound 1-1 and other herbicides, observed 64 days after treatment. The following applies: 1-1 alone 50 g ai/ha. As to the method: (§1) The data in Table XI and Table XII show the results when compounds 1-1 and 2-1 were tested as mixtures with other herbicides. Observations in Table XI were made 64 days after treatment while those in Table XII were made 56 days after treatment.

Series [2] can be described thus: Pre-emerge herbicidal activity of mixtures with Compound 2-1 and other herbicides, observed 56 days after treatment. The following applies: 2-1 alone 200 g ai/ha. As to the method:
as §1

The test system of series [3] is upland rice (Oryza sp., var.Tebonnet, RICE). As to the kind of experiment: Pre-emerge greenhouse screening, crop safety (phytotoxicity rating). The following applies: 14 days after application. The method in brief: (§2)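 Rates of 15 to 1000 g ai/ha were applied by mechanized flat-fan spray. Phytotoxicity was then judged visually at 14 days using a 0-100 scale.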
Series [4] has as its system soybean (Glycine max L., var. Pella 86, SOY). The description is as above. As to conditions: 14 days after application. Put shortly:
as §2

The subject of series [5] is field corn (Zea mays L., var. Dekalb 535, CORN). Described as above. As to conditions: 14 days after application. The method in brief:
as §2

Series [6] relates to redroot pigweed (Amaranthus retroflexus, AMARE). The experiment in a line: Pre-emerge greenhouse herbicide activity screening, phytotoxicity rating. As to conditions: 14 days after application. The method in brief: as §2
Series [7] deals with large crabgrass (Digitaria sanguinalis, DIGSA). Described as above. As to conditions: 14 days after application. Put shortly:
as §2

In series [8] the test system is green foxtail (Setaria viridis, SETVI). Described as above. The following applies: 14 days after application. The method in brief: as §2
The test system of series [9] is johnsongrass (Sorghum halepense, SORHA). The series is described as above. The following applies: 14 days after application. The method in brief:
as §2

The test system of series [10] is ivyleaf morningglory (Ipomoea hederacea, IPOHE). The description is as above. As to conditions: 14 days after application. Put shortly:
as §2

Series [11] deals with barnyardgrass (Echinochloa crus-galli, ECHCG). Described as above. The following applies: 14 days after application. Put shortly: as §2
Series [12] relates to velvetleaf (Abutilon theophrasti, ABUTH). The series is described as above. The following applies: 14 days after application. Put shortly:
as §2

Series [13] has as its system common ragweed (Ambrosia artemisiifolia L., AMBEL). The description is as above. The following applies: 14 days after application. The method in brief:
as §2

Series [14] concerns sicklepod (Cassia obtusifolia, CASOB). Described as above. As to conditions: 14 days after application. Put shortly: as §2
Series [15] concerns lambsquarters (Chenopodium album, CHEAL). Described as above. As to conditions: 14 days after application. The method in brief:
as §2

Series [16] has as its system redroot pigweed (Amaranthus retroflexus, AMARE). The experiment in a line: Post-emerge greenhouse herbicide activity screening, phytotoxicity rating. As to conditions: 14 days after application. Put shortly:
as §2

The subject of series [17] is large crabgrass (Digitaria sanguinalis, DIGSA). Described as above. The following applies: 14 days after application. Put shortly:
as §2

Series [18] concerns green foxtail (Setaria viridis, SETVI). Described as above. As to conditions: 14 days after application. The method in brief:
as §2

Series [19] concerns johnsongrass (Sorghum halepense, SORHA). Described as above. The following applies: 14 days after application. The method in brief: as §2
The subject of series [20] is ivyleaf morningglory (Ipomoea hederacea, IPOHE). Described as above. As to conditions: 14 days after application. Put shortly: as §2
Series [21] deals with barnyardgrass (Echinochloa crus-galli, ECHCG). The series is described as above. As to conditions: 14 days after application. The method in brief:
as §2

For series [22], the system named is velvetleaf (Abutilon theophrasti, ABUTH). The description is as above. The following applies: 14 days after application. The method in brief: as §2
The test system of series [23] is common ragweed (Ambrosia artemisiifolia L., AMBEL). The description is as above. The following applies: 14 days after application. The method in brief:
as §2

For series [24], the system named is sicklepod (Cassia obtusifolia, CASOB). The description is as above. The following applies: 14 days after application. Put shortly: as §2
The test system of series [25] is lambsquarters (Chenopodium album, CHEAL). The description is as above. The following applies: 14 days after application. The method in brief:
as §2

Series [26] relates to field corn (Zea mays L., var. Dekalb 535, CORN). The experiment in a line: Post-emerge greenhouse screening, crop safety / corn selectivity (phytotoxicity rating). The following applies: 14 days after application. The method in brief: as §2
The subject of series [27] is upland rice (Oryza sp., var.Tebonnet, RICE). The experiment in a line: Post-emerge greenhouse screening, crop safety (phytotoxicity rating). The following applies: 14 days after application. The method in brief: as §2
For series [28], the system named is soybean (Glycine max L., var. Pella 86, SOY). The series is described as above. As to conditions: 14 days after application. The method in brief: as §2

Consider `Cn1c(C(F)(F)F)cc(=O)n(-c2cc(Oc3ncccn3)c(Cl)cc2F)c1=S` [1-1.], for which the “ABUTH pre-emerge herbicidal activity” value in [1] (ABUTH) is listed as 87. Further, in series [1] (AMARE), the “AMARE pre-emerge herbicidal activity” value came to 93. Besides, the “AMBEL pre-emerge herbicidal activity” value in [1] (AMBEL) is 92. In addition, in series [1] (CHEAL), the “CHEAL pre-emerge herbicidal activity” value is listed as 95. For the same compound, in series [1] (CORN), the “CORN damage, pre-emerge” value was 0. Besides, the “SETVI pre-emerge herbicidal activity” value in series [1] (SETVI) is recorded as 90.

`Cn1c(=S)n(C)c(=O)n(-c2cc(Oc3ncccn3)c(Cl)cc2F)c1=O` [2-1.]: the “ABUTH pre-emerge herbicidal activity” value in series [2] (ABUTH) is 95. The “AMARE pre-emerge herbicidal activity” value in series [2] (AMARE) is reported as 93. For the same compound, in series [2] (AMBEL), the “AMBEL pre-emerge herbicidal activity” value was 95. In [2] (CHEAL), the “CHEAL pre-emerge herbicidal activity” value is 95. Moreover, the “CORN damage, pre-emerge” value in series [2] (CORN) came out at 0. Further, the “SETVI pre-emerge herbicidal activity” value in series [2] (SETVI) was found to be 90.

Take `N#Cc1c(-c2cc(Oc3ncccn3)c(Cl)cc2F)nn2c1CCCC2` [Compound 6-17]: the “RICE crop damage, phytotoxicity rating (0-100 scale)” value in [3] (125 g ai/ha) was 25; in [3] (250 g ai/ha) it was 35; in [27] (125 g ai/ha), 80; in series [27] (250 g ai/ha), 80. The “SOY crop damage, phytotoxicity rating (0-100 scale)” value in series [4] (125 g ai/ha) came to 0; in [4] (250 g ai/ha) it was 0; in series [28] (125 g ai/ha), 70; in series [28] (250 g ai/ha) it was 70. Also, the “CORN crop damage, phytotoxicity rating (0-100 scale)” value in series [5] (125 g ai/ha) is reported as 0; in series [5] (250 g ai/ha), 0; in series [26] (125 g ai/ha), 0; in [26] (250 g ai/ha), 5. Further, the “AMARE phytotoxicity rating (0-100 scale)” value in series [6] (125 g ai/ha), in series [6] (250 g ai/ha), in series [16] (125 g ai/ha) and in series [16] (250 g ai/ha) was 100 each time. Moreover, the “DIGSA phytotoxicity rating (0-100 scale)” value in series [7] (125 g ai/ha) amounted to 99; in series [7] (250 g ai/ha), 100; in series [17] (125 g ai/ha), 0; in series [17] (250 g ai/ha), 25. Further, the “SETVI phytotoxicity rating (0-100 scale)” value is recorded as 100 in [8] (125 g ai/ha), 100 in [8] (250 g ai/ha), 90 in [18] (125 g ai/ha) and 90 in [18] (250 g ai/ha). The “SORHA phytotoxicity rating (0-100 scale)” value in series [9] (125 g ai/ha) was found to be 95; in series [9] (250 g ai/ha), 98; in series [19] (125 g ai/ha) it was 0; in series [19] (250 g ai/ha), 30. The “IPOHE phytotoxicity rating (0-100 scale)” value in series [10] (125 g ai/ha) turned out to be 0; in series [10] (250 g ai/ha) it was 0; in [20] (125 g ai/ha), 100; in [20] (250 g ai/ha) it was 100. The “ECHCG phytotoxicity rating (0-100 scale)” value in [11] (125 g ai/ha) is 60; in series [11] (250 g ai/ha), 98; in series [21] (125 g ai/ha) it was 60; in series [21] (250 g ai/ha) it was 65. The “ABUTH phytotoxicity rating (0-100 scale)” value in series [12] (125 g ai/ha) amounted to 85; in series [12] (250 g ai/ha), 100; in series [22] (125 g ai/ha) it was 100; in series [22] (250 g ai/ha), 100. The “AMBEL phytotoxicity rating (0-100 scale)” value was found to be 35 in [13] (125 g ai/ha), 25 in series [13] (250 g ai/ha), 60 in series [23] (125 g ai/ha) and 75 in [23] (250 g ai/ha). For the same compound, the “CASOB phytotoxicity rating (0-100 scale)” value in series [14] (125 g ai/ha) is given as 0; in series [14] (250 g ai/ha), 25; in [24] (125 g ai/ha) it was 70; in series [24] (250 g ai/ha) it was 95. Further, the “CHEAL phytotoxicity rating (0-100 scale)” value in series [15] (125 g ai/ha), in [15] (250 g ai/ha), in [25] (125 g ai/ha) and in [25] (250 g ai/ha) was 100 in each case.

On to `O=[N+]([O-])c1ccccc1Oc1cc(-c2nn3c(c2Cl)CCCC3)c(F)cc1Cl` [Compound 6-19], for which the “RICE crop damage, phytotoxicity rating (0-100 scale)” value in series [3] (250 g ai/ha) was 0; in series [27] (250 g ai/ha), 35. For the same compound, the “SOY crop damage, phytotoxicity rating (0-100 scale)” value in series [4] (250 g ai/ha) turned out to be 50; in series [28] (250 g ai/ha), 40. Further, the “CORN crop damage, phytotoxicity rating (0-100 scale)” value was 0 in [5] (250 g ai/ha) and 3 in series [26] (250 g ai/ha). The “AMARE phytotoxicity rating (0-100 scale)” value in series [6] (250 g ai/ha) and in [16] (250 g ai/ha) was 100 throughout. The “DIGSA phytotoxicity rating (0-100 scale)” value came to 90 in series [7] (250 g ai/ha) and 50 in series [17] (250 g ai/ha). The “SETVI phytotoxicity rating (0-100 scale)” value in series [8] (250 g ai/ha) worked out at 95; in [18] (250 g ai/ha) it was 65. Besides, the “SORHA phytotoxicity rating (0-100 scale)” value is 65 in series [9] (250 g ai/ha) and 50 in series [19] (250 g ai/ha). For the same compound, the “IPOHE phytotoxicity rating (0-100 scale)” value in series [10] (250 g ai/ha) came out at 0; in series [20] (250 g ai/ha) it was 100. Also, the entries for the “ECHCG phytotoxicity rating (0-100 scale)” value in series [11] (250 g ai/ha) and in series [21] (250 g ai/ha) were 50 and 60, respectively. The “ABUTH phytotoxicity rating (0-100 scale)” value in series [12] (250 g ai/ha) amounted to 65; in series [22] (250 g ai/ha), 100. The “AMBEL phytotoxicity rating (0-100 scale)” value in series [13] (250 g ai/ha) and in series [23] (250 g ai/ha) was 50 each time. Moreover, the “CASOB phytotoxicity rating (0-100 scale)” value in series [14] (250 g ai/ha) and in series [24] (250 g ai/ha) was 75 in each case. In addition, the “CHEAL phytotoxicity rating (0-100 scale)” value in [15] (250 g ai/ha) is 100; in [25] (250 g ai/ha) it was 98.
